From ChEMBL document CHEMBL3608278 (J Med Chem, 2015)

Tests used:
[1] = target: T1, Potassium voltage-gated channel subfamily A member 3 (Homo sapiens, UniProt P22001); assay: cell-based; set-up: species or system Blood
[2] = target: T1, Potassium voltage-gated channel subfamily A member 3; set-up: species or system Blood

T1 sequence (P22001 whole entry): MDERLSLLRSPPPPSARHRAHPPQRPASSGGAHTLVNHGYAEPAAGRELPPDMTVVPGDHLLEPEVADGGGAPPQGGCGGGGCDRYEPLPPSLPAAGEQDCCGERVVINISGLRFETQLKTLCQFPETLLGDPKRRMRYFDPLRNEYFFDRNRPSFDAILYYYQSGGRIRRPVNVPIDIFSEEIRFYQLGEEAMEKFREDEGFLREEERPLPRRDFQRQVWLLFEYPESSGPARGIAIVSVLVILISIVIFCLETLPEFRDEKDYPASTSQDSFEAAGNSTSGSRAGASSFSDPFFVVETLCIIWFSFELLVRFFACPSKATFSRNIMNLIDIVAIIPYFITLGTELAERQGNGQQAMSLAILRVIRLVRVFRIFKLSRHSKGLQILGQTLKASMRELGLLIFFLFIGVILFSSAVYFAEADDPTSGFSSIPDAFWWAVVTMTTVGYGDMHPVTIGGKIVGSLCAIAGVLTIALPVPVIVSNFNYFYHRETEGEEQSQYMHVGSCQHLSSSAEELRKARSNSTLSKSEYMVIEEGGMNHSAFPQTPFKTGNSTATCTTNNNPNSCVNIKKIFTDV

Compound `CC[C@H](C)[C@@H]1NC(=O)[C@@H](NC(=O)[C@H](CO)NC(=O)[C@@H](N)CCCNC(=N)N)CSSC[C@@H](C(=O)O)NC(=O)[C@H]([C@@H](C)O)NC(=O)CNC(=O)[C@@H]2CSSC[C@@H]3NC(=O)[C@H](CCC(N)=O)NC(=O)[C@H](Cc4ccccc4)NC(=O)[C@H](C)NC(=O)[C@H]([C@@H](C)O)NC(=O)[C@H](CSSC[C@H](NC(=O)[C@H](Cc4ccccc4)NC(=O)[C@H](CO)NC(=O)[C@H](CC(C)C)NC(=O)[C@H](CCCNC(=N)N)NC(=O)[C@H](Cc4ccc(O)cc4)NC(=O)[C@H](CCCCN)NC(=O)[C@H](CCSC)NC(=O)[C@H](CO)NC(=O)[C@H](Cc4cnc[nH]4)NC(=O)[C@H](CCCCN)NC3=O)C(=O)N[C@@H](CCCNC(=N)N)C(=O)N[C@@H](CCCCN)C(=O)N[C@@H]([C@@H](C)O)C(=O)N2)NC(=O)[C@H](CCCNC(=N)N)NC(=O)[C@H](CO)NC(=O)[C@H](CCCCN)NC(=O)[C@@H]2CCCN2C(=O)[C@H](CCCNC(=N)N)NC(=O)[C@H]([C@@H](C)O)NC(=O)[C@H](CC(=O)O)NC1=O` has an IC50 [1] of 6.56 nM and an IC50 [2] of 10.1 nM.

For `CC[C@H](C)[C@@H]1NC(=O)[C@@H](NC(=O)[C@H](CO)NC(=O)[C@@H](N)CCCNC(=N)N)CSSC[C@@H](C(=O)O)NC(=O)[C@H]([C@@H](C)O)NC(=O)CNC(=O)[C@@H]2CSSC[C@@H]3NC(=O)[C@H](CCC(N)=O)NC(=O)[C@H](Cc4ccccc4)NC(=O)[C@H](C)NC(=O)[C@H]([C@@H](C)O)NC(=O)[C@H](CSSC[C@H](NC(=O)[C@H](Cc4ccccc4)NC(=O)[C@H](CCC(=O)O)NC(=O)[C@H](CC(C)C)NC(=O)[C@H](CCCNC(=N)N)NC(=O)[C@H](Cc4ccc(O)cc4)NC(=O)[C@H](CCCCN)NC(=O)[C@H](CCSC)NC(=O)[C@H](CO)NC(=O)[C@H](Cc4cnc[nH]4)NC(=O)[C@H](CCCCN)NC3=O)C(=O)N[C@@H](CCCNC(=N)N)C(=O)N[C@@H](CCCCN)C(=O)N[C@@H]([C@@H](C)O)C(=O)N2)NC(=O)[C@H](CCCNC(=N)N)NC(=O)[C@H](CO)NC(=O)[C@H](CCCCN)NC(=O)[C@@H]2CCCN2C(=O)[C@H]([C@@H](C)CC)NC(=O)[C@H]([C@@H](C)O)NC(=O)[C@H](CC(=O)O)NC1=O`, the IC50 [1] was 0.202 nM and the IC50 [2] was 0.4 nM.

`CC[C@H](C)[C@@H]1NC(=O)[C@@H](NC(=O)[C@H](CO)NC(=O)[C@@H](N)CCCNC(=N)N)CSSC[C@@H](C(=O)O)NC(=O)[C@H]([C@@H](C)O)NC(=O)CNC(=O)[C@@H]2CSSC[C@@H]3NC(=O)[C@H](CCC(N)=O)NC(=O)[C@H](Cc4ccccc4)NC(=O)[C@H](C)NC(=O)[C@H]([C@@H](C)O)NC(=O)[C@H](CSSC[C@H](NC(=O)[C@H](Cc4ccccc4)NC(=O)[C@H](CO)NC(=O)[C@H](CC(C)C)NC(=O)[C@H](CCCNC(=N)N)NC(=O)[C@H](Cc4ccc(O)cc4)NC(=O)[C@H](CCCCN)NC(=O)[C@H](CCSC)NC(=O)[C@H](CO)NC(=O)[C@H](Cc4cnc[nH]4)NC(=O)[C@H](CCCCN)NC3=O)C(=O)N[C@@H](CCC(=O)O)C(=O)N[C@@H](CCCCN)C(=O)N[C@@H]([C@@H](C)O)C(=O)N2)NC(=O)[C@H](CCCNC(=N)N)NC(=O)[C@H](CO)NC(=O)[C@H](CCCCN)NC(=O)[C@@H]2CCCN2C(=O)[C@H]([C@@H](C)CC)NC(=O)[C@H]([C@@H](C)O)NC(=O)[C@H](CC(=O)O)NC1=O` gave an IC50 [1] of 0.73 nM and an IC50 [2] of 1.96 nM.

Compound `CC[C@H](C)[C@@H]1NC(=O)[C@@H](NC(=O)[C@H](CCCNC(=N)N)NC(=O)[C@@H](N)CCCNC(=N)N)CSSC[C@@H](C(=O)O)NC(=O)[C@H]([C@@H](C)O)NC(=O)CNC(=O)[C@@H]2CSSC[C@@H]3NC(=O)[C@H](CCC(N)=O)NC(=O)[C@H](Cc4ccccc4)NC(=O)[C@H](C)NC(=O)[C@H]([C@@H](C)O)NC(=O)[C@H](CSSC[C@H](NC(=O)[C@H](Cc4ccccc4)NC(=O)[C@H](CO)NC(=O)[C@H](CC(C)C)NC(=O)[C@H](CCCNC(=N)N)NC(=O)[C@H](Cc4ccc(O)cc4)NC(=O)[C@H](CCCCN)NC(=O)[C@H](CCSC)NC(=O)[C@H](CO)NC(=O)[C@H](Cc4cnc[nH]4)NC(=O)[C@H](CCCCN)NC3=O)C(=O)N[C@@H](CCCNC(=N)N)C(=O)N[C@@H](CCCCN)C(=O)N[C@@H]([C@@H](C)O)C(=O)N2)NC(=O)[C@H](CCCNC(=N)N)NC(=O)[C@H](CO)NC(=O)[C@H](CCCCN)NC(=O)[C@@H]2CCCN2C(=O)[C@H]([C@@H](C)CC)NC(=O)[C@H]([C@@H](C)O)NC(=O)[C@H](CC(=O)O)NC1=O` has an IC50 [1] of 0.087 nM and an IC50 [2] of 0.116 nM.

In the case of `CC[C@H](C)[C@@H]1NC(=O)[C@H]([C@@H](C)O)NC(=O)[C@H](CC(=O)O)NC(=O)[C@H](CCCNC(=N)N)NC(=O)[C@@H](NC(=O)[C@H](CO)NC(=O)[C@@H](N)CCCNC(=N)N)CSSC[C@@H](C(=O)O)NC(=O)[C@H]([C@@H](C)O)NC(=O)CNC(=O)[C@@H]2CSSC[C@@H]3NC(=O)[C@H](CCC(N)=O)NC(=O)[C@H](Cc4ccccc4)NC(=O)[C@H](C)NC(=O)[C@H]([C@@H](C)O)NC(=O)[C@H](CSSC[C@H](NC(=O)[C@H](Cc4ccccc4)NC(=O)[C@H](CO)NC(=O)[C@H](CC(C)C)NC(=O)[C@H](CCCNC(=N)N)NC(=O)[C@H](Cc4ccc(O)cc4)NC(=O)[C@H](CCCCN)NC(=O)[C@H](CCSC)NC(=O)[C@H](CO)NC(=O)[C@H](Cc4cnc[nH]4)NC(=O)[C@H](CCCCN)NC3=O)C(=O)N[C@@H](CCCNC(=N)N)C(=O)N[C@@H](CCCCN)C(=O)N[C@@H]([C@@H](C)O)C(=O)N2)NC(=O)[C@H](CCCNC(=N)N)NC(=O)[C@H](CO)NC(=O)[C@H](CCCCN)NC(=O)[C@@H]2CCCN2C1=O`, the IC50 [1] is reported as 0.098 nM and the IC50 [2] is reported as 0.123 nM.

Compound `CC[C@H](C)[C@@H]1NC(=O)[C@@H](NC(=O)[C@H](CO)NC(=O)[C@@H](N)CCCNC(=N)N)CSSC[C@@H](C(=O)O)NC(=O)[C@H]([C@@H](C)O)NC(=O)CNC(=O)[C@@H]2CSSC[C@@H]3NC(=O)[C@H](CCC(N)=O)NC(=O)[C@H](Cc4ccccc4)NC(=O)[C@H](C)NC(=O)[C@H]([C@@H](C)O)NC(=O)[C@H](CSSC[C@H](NC(=O)[C@H](Cc4ccccc4)NC(=O)[C@H](CO)NC(=O)[C@H](CC(C)C)NC(=O)[C@H](CCCNC(=N)N)NC(=O)[C@H](Cc4ccc(O)cc4)NC(=O)[C@H](CCCCN)NC(=O)[C@H](CCSC)NC(=O)[C@H](CO)NC(=O)[C@H](Cc4c[nH]cn4)NC(=O)[C@H](CCCCN)NC3=O)C(=O)N[C@@H](CCCNC(=N)N)C(=O)N[C@@H](CCCCN)C(=O)N[C@@H]([C@@H](C)O)C(=O)N2)NC(=O)[C@H](CCCNC(=N)N)NC(=O)[C@H](CO)NC(=O)[C@H](CCCCN)NC(=O)[C@@H]2CCCN2C(=O)[C@H]([C@@H](C)CC)NC(=O)[C@H](CCCNC(=N)N)NC(=O)[C@H](CC(=O)O)NC1=O` has an IC50 [1] of 0.215 nM and an IC50 [2] of 0.304 nM.

Work on `CC[C@H](C)[C@@H]1NC(=O)[C@@H](NC(=O)[C@H](CO)NC(=O)[C@@H](N)CCCNC(=N)N)CSSC[C@@H](C(=O)O)NC(=O)[C@H]([C@@H](C)O)NC(=O)CNC(=O)[C@@H]2CSSC[C@@H]3NC(=O)[C@H](CCC(N)=O)NC(=O)[C@H](Cc4ccccc4)NC(=O)[C@H](C)NC(=O)[C@H]([C@@H](C)O)NC(=O)[C@H](CSSC[C@H](NC(=O)[C@H](Cc4ccccc4)NC(=O)[C@H](CO)NC(=O)[C@H](CC(C)C)NC(=O)[C@H](CCCNC(=N)N)NC(=O)[C@H](Cc4ccc(O)cc4)NC(=O)[C@H](CCCCN)NC(=O)[C@H](CCSC)NC(=O)[C@H](CO)NC(=O)[C@H](Cc4cnc[nH]4)NC(=O)[C@H](CCCCN)NC3=O)C(=O)N[C@@H](CCCNC(=N)N)C(=O)N[C@@H](Cc3cccc4ccccc34)C(=O)N[C@@H]([C@@H](C)O)C(=O)N2)NC(=O)[C@H](CCCNC(=N)N)NC(=O)[C@H](CO)NC(=O)[C@H](CCCCN)NC(=O)[C@@H]2CCCN2C(=O)[C@H]([C@@H](C)CC)NC(=O)[C@H]([C@@H](C)O)NC(=O)[C@H](CC(=O)O)NC1=O` yielded an IC50 [1] of 0.082 nM and an IC50 [2] of 0.148 nM.

Compound `CC[C@H](C)[C@@H]1NC(=O)[C@@H](NC(=O)[C@H](CO)NC(=O)[C@@H](N)CCCNC(=N)N)CSSC[C@@H](C(=O)O)NC(=O)[C@H]([C@@H](C)O)NC(=O)CNC(=O)[C@@H]2CSSC[C@@H]3NC(=O)[C@H](CCC(N)=O)NC(=O)[C@H](Cc4ccccc4)NC(=O)[C@H](C)NC(=O)[C@H]([C@@H](C)O)NC(=O)[C@H](CSSC[C@H](NC(=O)[C@H](Cc4ccccc4)NC(=O)[C@H](CO)NC(=O)[C@H](CC(C)C)NC(=O)[C@H](CCCNC(=N)N)NC(=O)[C@H](Cc4ccc(O)cc4)NC(=O)[C@H](CCCCN)NC(=O)[C@H](CCSC)NC(=O)[C@H](CO)NC(=O)[C@H](Cc4c[nH]cn4)NC(=O)[C@H](CCCCN)NC3=O)C(=O)N[C@@H](CCCNC(=N)N)C(=O)N[C@@H](CCCCN)C(=O)N[C@@H]([C@@H](C)O)C(=O)N2)NC(=O)[C@H](CCCNC(=N)N)NC(=O)[C@H](CO)NC(=O)[C@H](CCCCN)NC(=O)[C@@H]2CCCN2C(=O)[C@H]([C@@H](C)CC)NC(=O)[C@H](CCC(=O)O)NC(=O)[C@H](CC(=O)O)NC1=O` has an IC50 [1] of 0.074 nM and an IC50 [2] of 0.109 nM.

For `CC[C@H](C)[C@@H]1NC(=O)[C@@H](NC(=O)[C@H](CO)NC(=O)[C@@H](N)CCCNC(=N)N)CSSC[C@@H](C(=O)O)NC(=O)[C@H]([C@@H](C)O)NC(=O)CNC(=O)[C@@H]2CSSC[C@@H]3NC(=O)[C@H](CCC(N)=O)NC(=O)[C@H](Cc4ccccc4)NC(=O)[C@H](C)NC(=O)[C@H]([C@@H](C)O)NC(=O)[C@H](CSSC[C@H](NC(=O)[C@H](Cc4ccccc4)NC(=O)[C@H](CO)NC(=O)[C@H](CC(C)C)NC(=O)[C@H](CCCNC(=N)N)NC(=O)[C@H](Cc4ccc(O)cc4)NC(=O)[C@H](CCCCN)NC(=O)[C@H](CCSC)NC(=O)[C@H](CO)NC(=O)[C@H](Cc4cnc[nH]4)NC(=O)[C@H](CCCCN)NC3=O)C(=O)N[C@@H](CCCNC(=N)N)C(=O)N[C@@H](CCCCN)C(=O)N[C@@H]([C@@H](C)O)C(=O)N2)NC(=O)[C@H](CCCNC(=N)N)NC(=O)[C@H](CCC(=O)O)NC(=O)[C@H](CCCCN)NC(=O)[C@@H]2CCCN2C(=O)[C@H]([C@@H](C)CC)NC(=O)[C@H]([C@@H](C)O)NC(=O)[C@H](CC(=O)O)NC1=O`, the IC50 [1] was 0.023 nM and the IC50 [2] was 0.055 nM.
